# Measured values as given in patent US7423159B2, “Agent for preventing or treating neuropathy” (Takeda Pharmaceutical Company Limited, priority 2002, dated 2008).
row,melting point [°C],SMILES
1,200 to 201,"Cn1ncc(/C=C/C(=O)Nc2ccc(Cc3nn(C)c(=O)o3)cc2)c1-c1ccc(F)cc1 [Example 119, (2E)-3-[5-(4-Fluorophenyl)-1-methyl-1H-pyrazol-4-yl]-N-{4-[(4-methyl-5-oxo-4,5-dihydro-1,3,4-oxadiazol-2-yl)methyl]phenyl}acrylamide]"
2,189 to 190,"CCOC(=O)c1csc(Cc2ccc(NC(=O)/C=C/c3cnn(C)c3-c3ccc(F)cc3)cc2)n1 [Example 126, Ethyl 2-[4-({(2E)-3-[5-(4-fluorophenyl)-1-methyl-1H-pyrazol-4-yl]prop-2-enoyl}amino)benzyl]-1,3-thiazole-4-carboxylate]"
3,207 to 209,COP(=O)(Cc1ccc(NC(=O)/C=C/c2cnn(C)c2-c2cccc3ccccc23)cc1)OC
4,205 to 206,"Cn1ncc(/C=C/C(=O)Nc2ccc(Cc3nc4c(s3)CCCC4)cc2)c1-c1ccc(F)cc1 [Example 124, (2E)-3-[5-(4-Fluorophenyl)-1-methyl-1H-pyrazol-4-yl]-N-[4-(4,5,6,7-tetrahydro-1,3-benzothiazol-2-ylmethyl)phenyl]acrylamide]"
5,177 to 178,"Cn1ncc(/C=C/C(=O)Nc2ccc(CCc3nnco3)cc2)c1-c1ccc(F)cc1 [Example 89, (2E)-3-[5-(4-Fluorophenyl)-1-methyl-1H-pyrazol-4-yl]-N-{4-[2-(1,3,4-oxadiazol-2-yl)ethyl]phenyl}acrylamide]"
6,166 to 168,"Cn1ncc(/C=C/C(=O)Nc2ccc(CSC(C)(C)C)cc2)c1-c1ccc(F)cc1 [Example 211, (2E)-N-{4-[(tert-Butylthio)methyl]phenyl}-3-[5-(4-fluorophenyl)-1-methyl-1H-pyrazol-4-yl]acrylamide]"
7,203 to 204,CCOP(=O)(Cc1ccc(NC(=O)/C=C/c2nn(C)cc2-c2ccc(F)cc2)cc1)OCC
8,174 to 176,CCOP(=O)(OCC)c1ccc(NC(=O)/C=C/c2cnn(C)c2-c2ccc(F)cc2)cc1
9,154 to 155,"CCCc1nnc(Cc2ccc(NC(=O)/C=C/c3cnn(C)c3-c3ccc(F)cc3)cc2)o1 [Example 85, (2E)-3-[5-(4-fluorophenyl)-1-methyl-1H-pyrazol-4-yl]-N-{4-[(5-propyl-1,3,4-oxadiazol-2-yl)methyl]phenyl}acrylamide]"
10,220 to 221,"Cc1coc(Cc2ccc(NC(=O)/C=C/c3cnn(C)c3-c3ccc(F)cc3)cc2)n1 [Example 95, (2E)-3-[5-(4-Fluorophenyl)-1-methyl-1H-pyrazol-4-yl]-N-{4-[(4-methyl-1,3-oxazol-2-yl)methyl]phenyl}acrylamide]"
11,204 to 205,"CC(=O)c1ccc(NC(=O)/C=C/c2cnn(C)c2-c2ccc(F)cc2)cc1 [Example 165, (2E)-N-(4-Acetylphenyl)-3-[5-(4-fluorophenyl)-1-methyl-1H-pyrazol-4-yl)acrylamide]"
12,219 to 220,COP(=O)(Cc1ccc(NC(=O)/C=C/c2cnn(C)c2-c2ccccc2)cc1)OC
13,242 to 243,"Cn1ncc(/C=C/C(=O)Nc2ccc(C[S+]([O-])C(C)(C)C)cc2)c1-c1ccc(F)cc1 (centres unmarked) [Example 218, (2E)-N-{4-[(tert-Butylsulfinyl)methyl]phenyl}-3-[5-(4-fluorophenyl)-1-methyl-1H-pyrazol-4-yl]acrylamide]"
14,157 to 158,CCOP(=O)(CCc1ccc(NC(=O)/C=C/c2cnn(C)c2-c2ccc(F)cc2)cc1)OCC
15,187 to 188,"CCn1nnc(Cc2ccc(NC(=O)/C=C/c3cnn(C)c3-c3ccc(F)cc3)cc2)n1 [Example 104, (2E)-N-{4-[(2-Ethyl-2H-tetrazol-5-yl)methyl]phenyl}-3-[5-(4-fluorophenyl)-1-methyl-1H-pyrazol-4-yl]acrylamide]"
16,260 to 261,"Cn1ncc(/C=C/C(=O)Nc2ccc(CS(=O)(=O)C(C)(C)C)cc2)c1-c1ccc(F)cc1 [Example 224, (2E)-N-{4-[(tert-Butylsulfonyl)methyl]phenyl}-3-[5-(4-fluorophenyl)-1-methyl-1H-pyrazol-4-yl]acrylamide]"
17,192 to 195,"Cn1ncc(/C=C/C(=O)Nc2ccc(C(O)c3ccccc3)cc2)c1-c1ccc(F)cc1 (centres unmarked) [Example 174, (2E)-3-[5-(4-Fluorophenyl)-1-methyl-1H-pyrazol-4-yl]-N-{4-[hydroxy(phenyl)methyl]phenyl}acrylamide]"
18,243 to 244,"Cn1nnnc1Cc1ccc(NC(=O)/C=C/c2cnn(C)c2-c2ccc(F)cc2)cc1 [Example 101, (2E)-3-[5-(4-Fluorophenyl)-1-methyl-1H-pyrazol-4-yl]-N-{4-[(1-methyl-1H-tetrazol-5-yl)methyl]phenyl}acrylamide]"
19,151 to 152,"Cc1nnc(Cc2ccc(NC(=O)/C=C/c3cnn(C)c3-c3ccc(F)cc3)cc2)o1 [Example 136, (2E)-3-[5-(4-fluorophenyl)-1-methyl-1H-pyrazol-4-yl]-N-{4-[(5-methyl-1,3,4-oxadiazol-2-yl)methyl]phenyl}acrylamide]"
20,200 to 201,"CCc1csc(CCc2ccc(NC(=O)/C=C/c3cnn(C)c3-c3ccc(F)cc3)cc2)n1 [Example 113, (2E)-N-{4-[2-(4-Ethyl-1,3-thiazol-2-yl)ethyl]phenyl}-3-[5-(4-fluorophenyl)-1-methyl-1H-pyrazol-4-yl]acrylamide]"
21,168 to 169,CCOP(=O)(Cc1ccccc1NC(=O)/C=C/c1cnn(C)c1-c1ccc(F)cc1)OCC

row,melting point [°C],SMILES
1,206 to 207,"CCn1nnnc1Cc1ccc(NC(=O)/C=C/c2cnn(C)c2-c2ccc(F)cc2)cc1 [Example 103, (2E)-N-{4-[(1-Ethyl-1H-tetrazol-5-yl)methyl]phenyl}-3-[5-(4-fluorophenyl)-1-methyl-1H-pyrazol-4-yl]acrylamide]"
2,171 to 172,"Cn1ncc(/C=C/C(=O)Nc2ccc(OCc3cscn3)cc2)c1-c1ccc(F)cc1 [Example 92, (2E)-3-[5-(4-Fluorophenyl)-1-methyl-1H-pyrazol-4-yl]-N-[4-(1,3-thiazol-4-ylmethoxy)phenyl]acrylamide]"
3,291 to 292,"Cn1ncc(/C=C/C(=O)Nc2ccc(C(=O)O)cc2)c1-c1ccc(F)cc1 [Example 234, 4-({(2E)-3-[5-(4-fluorophenyl)-1-methyl-1H-pyrazol-4-yl]prop-2-enoyl}amino)benzoic acid]"
4,200 to 201,CCOP(=O)(Cc1ccc(NC(=O)/C=C/c2cnn(C)c2-c2ccc(C(F)(F)F)cc2)cc1)OCC
5,215 to 216,"Cn1ncc(/C=C/C(=O)Nc2ccc(Cc3ccccn3)cc2)c1-c1ccc(F)cc1 [Example 96, (2E)-3-[5-(4-Fluorophenyl)-1-methyl-1H-pyrazol-4-yl]-N-[4-(pyridin-2-ylmethyl)phenyl]acrylamide]"
6,205 to 206,CCOP(=O)(Cc1ccc(NC(=O)/C=C/c2cnn(C)c2-c2cccc(F)c2)cc1)OCC
7,226 to 227,CCOP(=O)(Cc1ccc(NC(=O)/C=C/c2cnn(CC)c2-c2ccc(F)cc2)cc1)OCC
8,247 to 248,COP(=O)(Cc1ccc(NC(=O)/C=C/c2cnn(C)c2-c2cccs2)cc1)OC
9,214 to 215,"CCN1C(=O)SC(Cc2ccc(NC(=O)/C=C/c3cnn(C)c3-c3ccc(F)cc3)cc2)C1=O (centres unmarked) [Example 111, (2E)-N-{4-[(3-Ethyl-2,4-dioxo-1,3-thiazolidin-5-yl)methyl]phenyl}-3-[5-(4-fluorophenyl)-1-methyl-1H-pyrazol-4-yl]acrylamide]"
10,200 to 201,"Cn1ncc(/C=C/C(=O)Nc2ccc(-n3cccn3)cc2)c1-c1ccc(F)cc1 [Example 197, (2E)-3-[5-(4-Fluorophenyl)-1-methyl-1H-pyrazol-4-yl]-N-[4-(1H-pyrazol-1-yl)phenyl]acrylamide]"
11,281 to 282,"CC(=O)Nc1ccc(NC(=O)/C=C/c2cnn(C)c2-c2ccc(F)cc2)cc1 [Example 166, (2E)-N-[4-(Acetylamino)phenyl]-3-[5-(4-fluorophenyl)-1-methyl-1H-pyrazol-4-yl]acrylamide]"
12,233 to 234,"Cn1ncc(/C=C/C(=O)Nc2ccc(Cn3cnnn3)cc2)c1-c1ccc(F)cc1 [Example 199, (2E)-3 [5-(4-Fluorophenyl)-1-methyl-1H-pyrazol-4-yl]-N-[4-(1H-tetrazol-1-ylmethyl)phenyl]acrylamide]"
13,187 to 189,CCn1ncc(/C=C/C(=O)Nc2ccc(CP(=O)(OC)OC)cc2)c1-c1ccc(F)cc1
14,226 to 227,"Cn1ncc(/C=C/C(=O)Nc2ccc(Cc3ccccc3)cc2)c1-c1ccc(F)cc1 [Example 175, (2E)-N-(4-Benzylphenyl)-3-[5-(4-fluorophenyl)-1-methyl-1H-pyrazol-4-yl]acrylamide]"
15,130 to 132,"Cn1ncc(/C=C/C(=O)Nc2cccc(CO)c2)c1-c1ccc(F)cc1 [Example 169, (2E)-3-[5-(4-Fluorophenyl)-1-methyl-1H-pyrazol-4-yl]-N-[3-(hydroxymethyl)phenyl)acrylamide]"
16,226 to 227,"CC(C)CC(=O)NCc1ccc(NC(=O)/C=C/c2cnn(C)c2-c2ccc(F)cc2)cc1 [Example 141, (2E)-3-[5-(4-Fluorophenyl)-1-methyl-1H-pyrazol-4-yl]-N-(4-{[(3-methylbutanoyl)amino]methyl}phenyl)acrylamide]"
17,228 to 230,CCOP(=O)(Cc1ccc(NC(=O)/C=C/c2cnn(C)c2C)cc1)OCC
18,> 300,"Cn1ncc(/C=C/C(=O)Nc2ccc(Cc3nc4ccccc4[nH]3)cc2)c1-c1ccc(F)cc1 [Example 108, (2E)-N-[4-(1H-Benzimidazol-2-ylmethyl)phenyl]-3-[5-(4-fluorophenyl)-1-methyl-1H-pyrazol-4-yl]acrylamide]"
19,146 to 148,"Cn1ncc(/C=C/C(=O)Nc2ccc(Cn3ncc4ccccc43)cc2)c1-c1ccc(F)cc1 [Example 176, (2E)-3-[5-(4-Fluorophenyl)-1-methyl-1H-pyrazol-4-yl]-N-[4-(1H-indazol-1-ylmethyl)phenyl]acrylamide]"
20,236 to 237,"Cn1ncc(/C=C/C(=O)Nc2ccc(C[S+]([O-])c3ccccc3)cc2)c1-c1ccc(F)cc1 (centres unmarked) [Example 219, (2E)-3-[5-(4-Fluorophenyl)-1-methyl-1H-pyrazol-4-yl]-N-{4-[(phenylsulfinyl)methyl]phenyl}acrylamide]"
